Assay: Serum concentration and pharmacokinetics of SCI after oral gavage in Wistar rats
Type: in vivo, Wistar rat
Method: All procedures were performed according to the Local Ethical Committee of Experiments on Animals guidelines in Olsztyn, Poland. The experiment was conducted in the same way as described by Antonowski et al.. Briefly, the experiment was performed on male Wistar rats (n = 6). Rats were maintained in ventilated rooms under a standard day photoperiod (12:12 h light–dark) as well as with lights on from 700 to 1900 h at 21 °C. All rats had free access to food and water. At 42 days of age, rats were randomized into experimental groups (Table 1 and Table 4).
Before the administration of cyclitol (10 mg/kg), the rats were fasting for 12 h (Table 1). […] Access to water was unlimited during the experiments. The study group (n = 6) was divided into two subgroups (n = 3 rats per subgroup). This practice allows for the use of only 6 rats for the entire experiment in accordance with the 3 Rs principle. Rats received the compound at a dose of 10 mg/kg body weight. Rats were weighed before starting the compound administration. Cyclitol was administered to the rats from the study group using a stainless-steel gastric tube with a ball tip (manufacturer—Agnthos, curved gastric tube, 16G, 3 mm tip, 75 mm). Cyclitol was dissolved in distilled water to a maximum volume of 1 mL. The prepared solution was administered to the animal.
Blood samples were collected into Eppendorf tubes and were centrifuged at 2500× g for 10 min at 8 °C the following day. Blood was harvested from the tail at a specific time. […] Serum was stored at −80 °C for subsequent analyses.
The analysis is described in detail by Antonowski and co-workers. Briefly, the first step was to remove the protein, then concentrate the sample in a speed vacuum evaporator to dryness. Next, samples were analyzed using the high-resolution gas chromatography method. We used a gas chromatograph GC2010Plus (Shimadzu, Tokyo, Japan) with a capillary column ZEBRON ZB-1 (15 m length, 0.25 mm diameter, and 0.1 μm film thickness, Phenomenex, Torrance, CA, USA). Helium was used as a carrier gas (at a flow rate of 1.18 mL min^−1). […] Finally, scyllo-inositol was quantified by using a standard.
The PK parameters were calculated using PK Solver. PKSolver is an add-in program for pharmacokinetic and pharmacodynamic data analysis […]. […] The area under the drug concentration–time curve from time zero to the time of the last quantifiable concentration (AUClast) was calculated using the trapezoidal rule. The volume over which the drug was distributed (Vd) and clearance (CL) were conducted by PK Solver. […] Nevertheless, we estimated K by log-linear regression analysis on data points on the terminal log-linear phase. Noncompartmental analysis is generally the preferred methodology to use in that it requires fewer assumptions than model-based approaches. We presented the results for individual rats, subgroups of rats, and for all subjects studied. The content of scyllo-inositol was calculated from the standard curves of appropriate components. To determine the terminal phase, […] was sufficient.
An analysis of all parameters was carried out with GraphPad Prism software (Version 10 Graph Pad Software Inc., La Jolla, CA, USA). Data are expressed as means ± SEM or individual data. Briefly, AUClast was calculated using the trapezoidal method. The T0.5 of oral administration was calculated as 0.693/K.

[1] = Mean of rats 1–3 ± SEM, serum, oral 10 mg/kg

For `O[C@H]1[C@H](O)[C@@H](O)[C@H](O)[C@@H](O)[C@@H]1O` [SCI, scyllo-inositol], the CL [1] was 0.112 ± 0.008 (95%CI: 0.145–0.079) L/h, the Vd [1] was 4.182 ± 2.287 (95%CI: 14.02–(−5.656)) L and the CL (Mean of rats 4–6 ± SEM, serum, oral 10 mg/kg) was 0.216 ± 0.055 (95%CI: 0.451–(−0.02)) L/h. The CL (Rat No 1, serum, oral 10 mg/kg) was 0.1 L/h, the Vd (Rat No 1, serum, oral 10 mg/kg) was 0.039 L and the CL (Rat No 2, serum, oral 10 mg/kg) was 0.11 L/h. It also gave a Vd (Rat No 2, serum, oral 10 mg/kg) of 7.93 L, a CL (Rat No 3, serum, oral 10 mg/kg) of 0.126 L/h and a Vd (Rat No 3, serum, oral 10 mg/kg) of 4.578 L. The CL (Rat No 4, serum, oral 10 mg/kg) was 0.325 L/h, the Vd (Rat No 4, serum, oral 10 mg/kg) was 0.358 L and the CL (Rat No 5, serum, oral 10 mg/kg) was 0.16 L/h. It also gave a Vd (Rat No 5, serum, oral 10 mg/kg) of 0.9967 L, a CL (Rat No 6, serum, oral 10 mg/kg) of 0.162 L/h and a Vd (Rat No 6, serum, oral 10 mg/kg) of 0.566 L. For the same molecule, the “Concentration of SCI in serum” value (Rat No. 1, time 0 h, oral 10 mg/kg) was “BLQ”, the “Concentration of SCI in serum” value (Rat No. 1, time 0.25 h, oral 10 mg/kg) was “BLQ” and the “Concentration of SCI in serum” value (Rat No. 1, time 12 h, oral 10 mg/kg) was “BLQ”. The “Concentration of SCI in serum” value (Rat No. 1, time 24 h, oral 10 mg/kg) was “BLQ”, the “Concentration of SCI in serum” value (Rat No. 2, time 0 h, oral 10 mg/kg) was “BLQ” and the “Concentration of SCI in serum” value (Rat No. 2, time 0.25 h, oral 10 mg/kg) was “BLQ”. For the same molecule, the “Concentration of SCI in serum” value (Rat No. 2, time 12 h, oral 10 mg/kg) was “BLQ”, the “Concentration of SCI in serum” value (Rat No. 2, time 24 h, oral 10 mg/kg) was “BLQ” and the “Concentration of SCI in serum” value (Rat No. 3, time 0 h, oral 10 mg/kg) was “BLQ”. The “Concentration of SCI in serum” value (Rat No. 3, time 0.25 h, oral 10 mg/kg) was “BLQ”, the “Concentration of SCI in serum” value (Rat No. 3, time 12 h, oral 10 mg/kg) was “BLQ” and the “Concentration of SCI in serum” value (Rat No. 3, time 24 h, oral 10 mg/kg) was “BLQ”. For the same molecule, the “Concentration of SCI in serum” value (Rat No. 4, time 36 h, oral 10 mg/kg) was “BLQ”, the “Concentration of SCI in serum” value (Rat No. 4, time 48 h, oral 10 mg/kg) was “BLQ” and the “Concentration of SCI in serum” value (Rat No. 5, time 36 h, oral 10 mg/kg) was “BLQ”. For the same molecule, the “Concentration of SCI in serum” value (Rat No. 5, time 48 h, oral 10 mg/kg) was “BLQ”, the “Concentration of SCI in serum” value (Rat No. 6, time 36 h, oral 10 mg/kg) was “BLQ” and the “Concentration of SCI in serum” value (Rat No. 6, time 48 h, oral 10 mg/kg) was “BLQ”. It also gave a concentration at 0 min (male, Wistar, rat, serum, oral, 10 mg/kg, Mean concentration of SCI in serum, at the point of administration (0 min), rats 1–3) of 0 ng/mL, a concentration at 0.5 h (male, Wistar, rat, serum, po, 10 mg/kg, Concentration of SCI in serum, Rat No. 1, oral 10 mg/kg) of 1000 ng/mL and a concentration at 1 h (male, Wistar, rat, serum, po, 10 mg/kg, Concentration of SCI in serum, Rat No. 1, time 1 h, oral 10 mg/kg) of 1600 ng/mL. The concentration at 1.5 h (male, Wistar, rat, serum, po, 10 mg/kg, Concentration of SCI in serum, Rat No. 1, time 1.5 h, oral 10 mg/kg) was 7200 ng/mL, the concentration at 0.5 h (male, Wistar, rat, serum, po, 10 mg/kg, Concentration of SCI in serum, Rat No. 2, oral 10 mg/kg) was 4600 ng/mL and the concentration at 1 h (male, Wistar, rat, serum, po, 10 mg/kg, Concentration of SCI in serum, Rat No. 2, time 1 h, oral 10 mg/kg) was 5600 ng/mL. For the same molecule, the concentration at 1.5 h (male, Wistar, rat, serum, po, 10 mg/kg, Concentration of SCI in serum, Rat No. 2, time 1.5 h, oral 10 mg/kg) was 6200 ng/mL, the concentration at 0.5 h (male, Wistar, rat, serum, po, 10 mg/kg, Concentration of SCI in serum, Rat No. 3, oral 10 mg/kg) was 5600 ng/mL and the concentration at 1 h (male, Wistar, rat, serum, po, 10 mg/kg, Concentration of SCI in serum, Rat No. 3, time 1 h, oral 10 mg/kg) was 6800 ng/mL. For the same molecule, the concentration at 1.5 h (male, Wistar, rat, serum, po, 10 mg/kg, Concentration of SCI in serum, Rat No. 3, time 1.5 h, oral 10 mg/kg) was 4400 ng/mL, the concentration at 2 h (male, Wistar, rat, serum, po, 10 mg/kg, Concentration of SCI in serum, Rat No. 4, time 2 h, oral 10 mg/kg) was 3200 ng/mL and the concentration at 4 h (male, Wistar, rat, serum, po, 10 mg/kg, Concentration of SCI in serum, Rat No. 4, time 4 h, oral 10 mg/kg) was 600 ng/mL. It also gave a concentration at 8 h (male, Wistar, rat, serum, po, 10 mg/kg, Concentration of SCI in serum, Rat No. 4, time 8 h, oral 10 mg/kg) of 400 ng/mL, a concentration at 2 h (male, Wistar, rat, serum, po, 10 mg/kg, Concentration of SCI in serum, Rat No. 5, time 2 h, oral 10 mg/kg) of 3800 ng/mL and a concentration at 4 h (male, Wistar, rat, serum, po, 10 mg/kg, Concentration of SCI in serum, Rat No. 5, time 4 h, oral 10 mg/kg) of 6100 ng/mL. It also gave a concentration at 8 h (male, Wistar, rat, serum, po, 10 mg/kg, Concentration of SCI in serum, Rat No. 5, time 8 h, oral 10 mg/kg) of 200 ng/mL, a concentration at 2 h (male, Wistar, rat, serum, po, 10 mg/kg, Concentration of SCI in serum, Rat No. 6, time 2 h, oral 10 mg/kg) of 5400 ng/mL and a concentration at 4 h (male, Wistar, rat, serum, po, 10 mg/kg, Concentration of SCI in serum, Rat No. 6, time 4 h, oral 10 mg/kg) of 3600 ng/mL. For the same molecule, the concentration at 8 h (male, Wistar, rat, serum, po, 10 mg/kg, Concentration of SCI in serum, Rat No. 6, time 8 h, oral 10 mg/kg) was 400 ng/mL, the concentration at 30 min (male, Wistar, rat, serum, po, 10 mg/kg, Mean concentration of SCI in serum, 30 min after oral 10 mg/kg, mean of rats 1–3) was 3730 ng/mL and the concentration at 1 h (male, Wistar, rat, serum, po, 10 mg/kg, Mean concentration of SCI in serum, 1 h after oral 10 mg/kg, mean of rats 1–3) was 4670 ng/mL. It also gave a concentration at 1.5 h (male, Wistar, rat, serum, po, 10 mg/kg, Mean concentration of SCI in serum, 1.5 h after oral 10 mg/kg, mean of rats 1–3) of 5930 ng/mL, a concentration at 2 h (male, Wistar, rat, serum, po, 10 mg/kg, Mean concentration of SCI in serum, 2 h after oral 10 mg/kg, mean of rats 4–6) of 4130 ng/mL and a concentration at 4 h (male, Wistar, rat, serum, po, 10 mg/kg, Mean concentration of SCI in serum, 4 h after oral 10 mg/kg, mean of rats 4–6) of 3430 ng/mL. For the same molecule, the concentration at 8 h (male, Wistar, rat, serum, po, 10 mg/kg, Mean concentration of SCI in serum, 8 h after oral 10 mg/kg, mean of rats 4–6) was 330 ng/mL and the concentration at 12 h (male, Wistar, rat, serum, po, 10 mg/kg, Mean concentration of SCI in serum, 12 h after oral 10 mg/kg, rats 1–3) was 0 ng/mL.

Reference: publication PMC12299890 (Pharmaceuticals, 2025)
